Results taken from patent US20120015812A1, “Mixtures of strobilurins with triexapac-ethyl” (BASF SE, priority 2003, published 2012).

Experiments:
[1] = system: soybean plants (cv. “Delta Pine”); assay: Reduction of ethylene formation in leaves of soybean plants (gas chromatography); format: in vivo; conditions: for Ethylene Evolution per Unit Leaf Weight [% of Control]: greenhouse, leaf spray 750 l/ha, 24 hours after treatment, shoots wilted 10 min, incubated 60 min, g/ha of ai: Co++ 40, pyraclostrobin 100, salicylic acid 500
Description: Soybean plants were raised under greenhouse conditions with two plants each per 12-cm pot. Spray treatments of the leaves were carried out with a volume of liquid of 750 l/ha when the plants had developed one to two trifoliate leaves. 24 hours after treatment, the shoots of the soybean plants were dissected above the cotyledons and wilted for 10 minutes under laboratory conditions. Shoots representing a distinct treatment were incubated for 60 minutes under laboratory conditions in a 100-ml Erlenmeyer flask sealed with a rubber cap. Thereafter, gas samples were taken and analyzed for their ethylene content by gas chromatography.
Reduction of ethylene formation in leaves of soybean plants (cv. “Delta Pine”)

[2] = system: soybeans (cv. “Embrapa 48”); assay: Yield improvement of soybeans naturally infected with Phakopsora pachyrhizi; format: in vivo, soybean; conditions: as in Example 3; pyraclostrobin 112.5 g/ha, Co++ 29 g/ha, alone or combined
Excerpt: Seeds of soybean cv. “Embrapa 48” were planted and grown under standard conditions with adequate supply of water and nutrients. Infection with Phakopsora pachyrhizi occurred naturally. The active ingredients have been applied twice, 62 and 68 days after seeding.
Yield improvement of soybeans (cv. “Embrapa 48)

[3] = system: soybeans of the cultivar RS10; assay: Spray treatment of rust-preinfected soybeans: leaf drop and yield; format: in vivo, soybean; conditions: soybeans cv. RS10, 8-12% preinfection by Phakopsora pachyrhizi, 8 days after treatment; pyraclostrobin 133 g/ha alone or with 80 g/ha CoCl2×6 H2O and 100 g/ha prohexadione-Ca
Description: (§1) During fruit formation, soybeans of the cultivar RS10 with 8-12% preinfection by Phakopsora pachyrhizi were treated by spray application using customary sprayers with a mixture of 133 g/ha of pyraclostrobin, 80 g/ha of CoCl2×6 H2O(=20 g/ha of cobalt) and 100 g/ha of prohexadione-Ca. Entirely untreated plants and plants treated with 133 g/ha of pyraclostrobin were used for comparison.

Phakopsora pachyrhizi = assay: Spray treatment of soybeans preinfected with Phakopsora pachyrhizi: infection by pathogen; format: in vivo; conditions: soybeans cv. RS10, 8-12% preinfection, spray application, 8 days after treatment; 133 g/ha pyraclostrobin
Description: as §1

Compound | Ethylene Evolution per Unit Leaf Weight [% of Control] [1] | seed yield improvement above the control [2] | ethylene formation in drought-stressed soybean leaves ([1]; summary in words of Example 2) | leaf drop [3] | infection by pathogen (Phakopsora pachyrhizi)
O.O.O.O.O.O.[Cl-].[Cl-].[Co+2] [CoCl2 × 6 H2O, CoCl2×6 H2O] | 41 % of Control |  |  |  | 
[Co+2] [Co^++] |  | 22% |  |  | 
O=C(O)c1ccccc1O [Salicylic Acid] | 97 % of Control |  |  |  | 
COC(=O)N(OC)c1ccccc1COc1ccn(-c2ccc(Cl)cc2)n1 [pyraclostrobin, methyl N-{2-[1-(4-chlorophenyl)-1H-pyrazol-3-yloxymethyl]phenyl}(N-methoxy)carbamate] |  | 24% | inhibits ethylene formation | considerable leaf drop | less infection by pathogen than the entirely untreated plants
